Data on one substance can be found in patent US20080145313A1, “Compositions and Methods for the Treatment and Prevention of Neoplastic Disorders” (Genesis Research & Development Corporation Limited, priority 2006, published 2008).

In data set [1] the test system is RRM1 mRNA. Nature of the data set: RRM1 mRNA level by quantitative RT-PCR in A549 cells. In kind it is cell-based, human. The conditions noted are these: 0.01 nM siRNA; 24 h post-transfection. The method, then:
RNA was purified from cells using Trizol® extraction as per the manufacturer's protocol (Invitrogen). cDNA was prepared by digesting approximately 200 ng purified RNA with DNAse I (Invitrogen) for 15 minutes at room temperature, followed by 15 minutes at 65° C. in the presence of 25 mM EDTA. 30 ng random primers were added and incubated for 10 minutes at room temperature, 1 minute on ice; Superscript III polymerase (Invitrogen) was added in presence of 5 nM DTT (Sigma, St Louis, Mo.) and 1 mM deoxyribonucleotides (Invitrogen), and the reaction incubated at 25° C. for 5 minutes, followed by an hour at 55° C. cDNA was diluted 1:3 in 10 mM Tris pH 7.0, and quantitative RT-PCR carried out on an ABI Prism 7900HT (Applied Biosciences, Inc., Foster City, Calif.) using FastStart TaqMan SYBRGreen (Roche, Basel, Switzerland) and specific primers at 360 nM for RRM1 and RRM2 and the housekeeping genes HPRT and Lamin. Primer sequence pairs used for RRM1, RRM2, HPRT and lamin are given in SEQ ID NO: 4881 and 4882; 4883 and 4884; 4885 and 4886; 4887 and 4888 respectively.

For data set [2], the system named is A549 cells. The data set is described as follows: Growth inhibition of siRNA-transfected A549 cells, SYBR Green I DNA content. It counts as cell-based, human. The note with it: 10 nM siRNA; DNA content 96 hours after transfection. In short, it runs like this: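 A549 cells reverse-transfected with 10 nM Stealth siRNAs via Lipofectamine RNAiMAX, seeded at 5×10^3 cells/cm^2 in RPMI 1640/10% FCS; non-specific siRNA control. DNA content read 96 h post-transfection by SYBR Green I fluorescence (ex 485/em 535 nm) after freeze-thaw and Triton X-100 lysis; mean of three wells.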

Regarding “SEQ ID NO: 4830: Stealth siRNA targeting RRM1 (chain 1 AAGATCTGCTTATTCAGTAACTGGG; chain 2 AAGAUCUGCUUAUUCAGUAACUGGG; Commercial Stealth siRNA duplex, modification pattern not given here; one strand in two spellings)”, the “RRM1 mRNA expression” value in data set [1] is on record as “effectively silenced”. In addition, the “Growth Inhibition in A549 cells” value in data set [2] was “++ (inhibits by at least 75%)”.
